Source: PubChem BioAssay (NCI)
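Step 1: Grow cells in 96-well plates. Step 2: Expose to compound for 48 hours at 5 concentrations. Step 3: Interpolate endpoints linearly; if unreached, use highest concentration. Abbreviation: GI50, concentration required for 50% inhibition of growth. At the TGI there is no net growth.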

How the values were obtained:
Assay in all cases: DTP human tumour cell line panel, 48 h
SR leukemia = system: SR leukemia
SNB-19 CNS = system: SNB-19 CNS
TK-10 renal = system: TK-10 renal
NCI-H522 lung = system: NCI-H522 lung
CAKI-1 renal = system: CAKI-1 renal
HOP-92 NSCLC = system: HOP-92 NSCLC
K-562 leukemia = system: K-562 leukemia
MALME-3M melanoma = system: MALME-3M melanoma
UACC-257 melanoma = system: UACC-257 melanoma
DU-145 prostate = system: DU-145 prostate
OVCAR-5 ovarian = system: OVCAR-5 ovarian
SF-268 CNS = system: SF-268 CNS
A498 renal = system: A498 renal
RXF 393 renal = system: RXF 393 renal
HOP-62 NSCLC = system: HOP-62 NSCLC
COLO 205 colon = system: COLO 205 colon
NCI-H460 lung = system: NCI-H460 lung
NCI-H23 lung = system: NCI-H23 lung
OVCAR-4 ovarian = system: OVCAR-4 ovarian
PC-3 prostate = system: PC-3 prostate
IGROV1 ovarian = system: IGROV1 ovarian
HCT-15 colon = system: HCT-15 colon
HS 578T breast = system: HS 578T breast
MDA-MB-435 = system: MDA-MB-435
HL-60(TB) leukemia = system: HL-60(TB) leukemia
786-0 renal = system: 786-0 renal
SW-620 colon = system: SW-620 colon
SK-MEL-28 melanoma = system: SK-MEL-28 melanoma
NCI/ADR-RES ovarian = system: NCI/ADR-RES ovarian
ACHN renal = system: ACHN renal
HCT-116 colon = system: HCT-116 colon
HCC-2998 colon = system: HCC-2998 colon
MOLT-4 leukemia = system: MOLT-4 leukemia
MDA-MB-231 breast = system: MDA-MB-231 breast
CCRF-CEM leukemia = system: CCRF-CEM leukemia
EKVX NSCLC = system: EKVX NSCLC
OVCAR-3 ovarian = system: OVCAR-3 ovarian
SK-OV-3 ovarian = system: SK-OV-3 ovarian
M14 melanoma = system: M14 melanoma
A549 NSCLC = system: A549 NSCLC
SF-295 CNS = system: SF-295 CNS
U251 CNS = system: U251 CNS
SF-539 CNS = system: SF-539 CNS
MCF7 breast = system: MCF7 breast
SK-MEL-5 melanoma = system: SK-MEL-5 melanoma
RPMI-8226 leukemia = system: RPMI-8226 leukemia
BT-549 breast = system: BT-549 breast
LOX IMVI melanoma = system: LOX IMVI melanoma
OVCAR-8 ovarian = system: OVCAR-8 ovarian
SN12C renal = system: SN12C renal
UO-31 renal = system: UO-31 renal
SK-MEL-2 melanoma = system: SK-MEL-2 melanoma
UACC-62 melanoma = system: UACC-62 melanoma
NCI-H226 lung = system: NCI-H226 lung
HT29 colon = system: HT29 colon
KM12 colon = system: KM12 colon
SNB-75 CNS = system: SNB-75 CNS
T-47D breast = system: T-47D breast

## ClC(Cl)c1nc(-c2cccnc2)n2nc(-c3ccccc3)cc2n1
SR leukemia
  GI50: 348 nM
  TGI: > 100 µM
SNB-19 CNS
  GI50: 1880 nM
  TGI: 5.89 µM
TK-10 renal
  GI50: 1840 nM
  TGI: 6.49 µM
NCI-H522 lung
  GI50: 1670 nM
  TGI: 6.03 µM
CAKI-1 renal
  GI50: 1730 nM
  TGI: 5.51 µM
HOP-92 NSCLC
  GI50: 2160 nM
  TGI: 5.29 µM
K-562 leukemia
  GI50: 1330 nM
  TGI: > 100 µM
MALME-3M melanoma
  GI50: 1590 nM
  TGI: 3.25 µM
UACC-257 melanoma
  GI50: 2390 nM
  TGI: 6.08 µM
DU-145 prostate
  GI50: 554 nM
  TGI: 3.14 µM
OVCAR-5 ovarian
  GI50: 1900 nM
  TGI: 5.43 µM
SF-268 CNS
  GI50: 2280 nM
  TGI: 5.76 µM
A498 renal
  GI50: 29.9 nM
  TGI: 2.17 µM
RXF 393 renal
  GI50: 1130 nM
  TGI: 2.45 µM
HOP-62 NSCLC
  GI50: 1690 nM
  TGI: 6.44 µM
COLO 205 colon
  GI50: 592 nM
  TGI: 2.39 µM
NCI-H460 lung
  GI50: 1090 nM
  TGI: 4.21 µM
NCI-H23 lung
  GI50: 620 nM
  TGI: 2.9 µM
OVCAR-4 ovarian
  GI50: 2030 nM
  TGI: 5.78 µM
PC-3 prostate
  GI50: 1710 nM
  TGI: 4.68 µM
IGROV1 ovarian
  GI50: 1630 nM
  TGI: 5.23 µM
HCT-15 colon
  GI50: 472 nM
  TGI: 3.44 µM
HS 578T breast
  GI50: 2500 nM
  TGI: 6.05 µM
MDA-MB-435
  GI50: 1340 nM
  TGI: 2.82 µM
HL-60(TB) leukemia
  GI50: 2180 nM
  TGI: 7.19 µM
786-0 renal
  GI50: 3.05 µM
  TGI: > 100 µM
SW-620 colon
  GI50: 666 nM
  TGI: 5.3 µM
SK-MEL-28 melanoma
  GI50: 1710 nM
  TGI: 3.51 µM
NCI/ADR-RES ovarian
  GI50: 1140 nM
  TGI: 4.18 µM
ACHN renal
  GI50: 1370 nM
  TGI: 4.94 µM
HCT-116 colon
  GI50: 1430 nM
  TGI: 6.29 µM
HCC-2998 colon
  GI50: 639 nM
  TGI: 2.15 µM
MOLT-4 leukemia
  GI50: 984 nM
  TGI: > 100 µM
MDA-MB-231 breast
  GI50: 1980 nM
  TGI: 5.07 µM
CCRF-CEM leukemia
  GI50: 2320 nM
  TGI: > 100 µM
EKVX NSCLC
  GI50: 2320 nM
  TGI: 6.21 µM
OVCAR-3 ovarian
  GI50: 1610 nM
  TGI: 4.16 µM
SK-OV-3 ovarian
  GI50: 1780 nM
  TGI: 5.02 µM
M14 melanoma
  GI50: 1140 nM
  TGI: 2.79 µM
A549 NSCLC
  GI50: 1300 nM
  TGI: 9 µM
SF-295 CNS
  GI50: 2270 nM
  TGI: 6.52 µM
U251 CNS
  GI50: 1460 nM
  TGI: 5.11 µM

## NCCCn1c2ccccc2c2c3c(c4c(c21)CCC(O)CC4)C(=O)NC3=O (stereo not drawn)
SR leukemia
  TGI: 5.15 µM
TK-10 renal
  TGI: 14.7 µM
NCI-H522 lung
  TGI: 13.2 µM
SF-539 CNS
  TGI: 21.6 µM
CAKI-1 renal
  TGI: 16.6 µM
HOP-92 NSCLC
  TGI: 12.9 µM
K-562 leukemia
  TGI: 8.5 µM
MALME-3M melanoma
  TGI: 15.8 µM
UACC-257 melanoma
  TGI: 29.7 µM
DU-145 prostate
  TGI: 14.1 µM
OVCAR-5 ovarian
  TGI: 15.5 µM
MCF7 breast
  TGI: 3.58 µM
SK-MEL-5 melanoma
  TGI: 16.5 µM
SF-268 CNS
  TGI: 4.43 µM
A498 renal
  TGI: 22.8 µM
RXF 393 renal
  TGI: 13.6 µM
HOP-62 NSCLC
  TGI: 15.9 µM
NCI-H460 lung
  TGI: 14 µM
NCI-H23 lung
  TGI: 14.3 µM
RPMI-8226 leukemia
  TGI: 14.6 µM
OVCAR-4 ovarian
  TGI: 5.44 µM
BT-549 breast
  TGI: 20.2 µM
PC-3 prostate
  TGI: 16.2 µM
IGROV1 ovarian
  TGI: 21.5 µM
HCT-15 colon
  TGI: 23 µM
HS 578T breast
  TGI: 20.9 µM
MDA-MB-435
  TGI: 13.6 µM
HL-60(TB) leukemia
  TGI: 22 µM
LOX IMVI melanoma
  TGI: 2920 nM
786-0 renal
  TGI: 16.8 µM
OVCAR-8 ovarian
  TGI: 21.6 µM
SN12C renal
  TGI: 13.6 µM
UO-31 renal
  TGI: 19.9 µM
SW-620 colon
  TGI: 5.19 µM
SK-MEL-2 melanoma
  TGI: 24.1 µM
SK-MEL-28 melanoma
  TGI: 13.1 µM
NCI/ADR-RES ovarian
  TGI: 32.9 µM
ACHN renal
  TGI: 12.1 µM
HCT-116 colon
  TGI: 28.4 µM
HCC-2998 colon
  TGI: 4.24 µM
UACC-62 melanoma
  TGI: 17.3 µM
NCI-H226 lung
  TGI: 13.6 µM
MOLT-4 leukemia
  TGI: 11.2 µM
MDA-MB-231 breast
  TGI: 14.4 µM
CCRF-CEM leukemia
  TGI: 10.4 µM
EKVX NSCLC
  TGI: 23.7 µM
OVCAR-3 ovarian
  TGI: 12.2 µM
HT29 colon
  TGI: 4.99 µM
M14 melanoma
  TGI: 18.2 µM
A549 NSCLC
  TGI: 21.6 µM
KM12 colon
  TGI: 10.7 µM
SF-295 CNS
  TGI: 15.6 µM
U251 CNS
  TGI: 13.1 µM

## O=C(N=C1SCCN1C(=O)C(C(F)(F)F)C(F)(F)F)C(C(F)(F)F)C(F)(F)F
SR leukemia
  TGI: > 100 µM
SNB-19 CNS
  TGI: > 100 µM
TK-10 renal
  TGI: > 100 µM
NCI-H522 lung
  TGI: > 100 µM
SF-539 CNS
  TGI: > 100 µM
CAKI-1 renal
  TGI: > 100 µM
HOP-92 NSCLC
  TGI: > 100 µM
K-562 leukemia
  TGI: > 100 µM
MALME-3M melanoma
  TGI: > 100 µM
UACC-257 melanoma
  TGI: > 100 µM
OVCAR-5 ovarian
  TGI: > 100 µM
MCF7 breast
  TGI: > 100 µM
SK-MEL-5 melanoma
  TGI: > 100 µM
A498 renal
  TGI: > 100 µM
RXF 393 renal
  TGI: > 100 µM
HOP-62 NSCLC
  TGI: > 100 µM
COLO 205 colon
  TGI: > 100 µM
NCI-H460 lung
  TGI: > 100 µM
NCI-H23 lung
  TGI: > 100 µM
RPMI-8226 leukemia
  TGI: > 100 µM
OVCAR-4 ovarian
  TGI: > 100 µM
PC-3 prostate
  TGI: > 100 µM
IGROV1 ovarian
  TGI: > 100 µM
HCT-15 colon
  TGI: > 100 µM
MDA-MB-435
  TGI: > 100 µM
HL-60(TB) leukemia
  TGI: > 100 µM
LOX IMVI melanoma
  TGI: > 100000 nM
786-0 renal
  TGI: > 100 µM
OVCAR-8 ovarian
  TGI: > 100 µM
UO-31 renal
  TGI: > 100 µM
SW-620 colon
  TGI: > 100 µM
SK-MEL-2 melanoma
  TGI: > 100 µM
SK-MEL-28 melanoma
  TGI: > 100 µM
NCI/ADR-RES ovarian
  TGI: > 100 µM
ACHN renal
  TGI: > 100 µM
HCT-116 colon
  TGI: > 100 µM
HCC-2998 colon
  TGI: > 100 µM
NCI-H226 lung
  TGI: > 100 µM
MOLT-4 leukemia
  TGI: > 100 µM
MDA-MB-231 breast
  TGI: > 100 µM
CCRF-CEM leukemia
  TGI: > 100 µM
EKVX NSCLC
  TGI: > 100 µM
OVCAR-3 ovarian
  TGI: > 100 µM
HT29 colon
  TGI: > 100 µM
SK-OV-3 ovarian
  TGI: > 100 µM
M14 melanoma
  TGI: > 100 µM
A549 NSCLC
  TGI: > 100 µM
SF-295 CNS
  TGI: > 100 µM
U251 CNS
  TGI: > 100 µM

## COc1cc(OC)c(OC)cc1/C=C\c1nccc2ccccc12
SR leukemia
  TGI: > 100 µM
SNB-19 CNS
  TGI: 61.4 µM
TK-10 renal
  TGI: 88.9 µM
CAKI-1 renal
  TGI: 68.3 µM
HOP-92 NSCLC
  TGI: 32.9 µM
K-562 leukemia
  TGI: > 100 µM
MALME-3M melanoma
  TGI: > 100 µM
DU-145 prostate
  TGI: 34.4 µM
OVCAR-5 ovarian
  TGI: 98.3 µM
SK-MEL-5 melanoma
  TGI: 29.5 µM
SF-268 CNS
  TGI: 58.8 µM
RXF 393 renal
  TGI: 39 µM
COLO 205 colon
  TGI: 38 µM
NCI-H23 lung
  TGI: 51.7 µM
RPMI-8226 leukemia
  TGI: 59.2 µM
OVCAR-4 ovarian
  TGI: > 100 µM
PC-3 prostate
  TGI: 60.2 µM
IGROV1 ovarian
  TGI: 87 µM
HS 578T breast
  TGI: 94.3 µM
HL-60(TB) leukemia
  TGI: 73.2 µM
OVCAR-8 ovarian
  TGI: 78.9 µM
UO-31 renal
  TGI: 64.1 µM
SW-620 colon
  TGI: 83.4 µM
SK-MEL-28 melanoma
  TGI: 74.7 µM
NCI/ADR-RES ovarian
  TGI: > 100 µM
SNB-75 CNS
  TGI: 50.6 µM
HCT-116 colon
  TGI: 33.4 µM
MOLT-4 leukemia
  TGI: 95.8 µM
CCRF-CEM leukemia
  TGI: > 100 µM
EKVX NSCLC
  TGI: 89.7 µM
SK-OV-3 ovarian
  TGI: > 100 µM
M14 melanoma
  TGI: 31.1 µM
A549 NSCLC
  TGI: > 100 µM
KM12 colon
  TGI: 33.5 µM
T-47D breast
  TGI: 80.4 µM
SF-295 CNS
  TGI: 56.1 µM
U251 CNS
  TGI: 65.5 µM
